Results published in BindingDB's records for doi:10.1007/s002109900141 (Novartis Pharma, 1999).
pKi: −log10 of the molar value. Several values for one entry are separate records, joined by “and”; a condition that tells them apart may be missing. Equal entries are not always repeated. *1 amine or outer side, *2 acyl side, *3 side chain or, on linkers, in order; H or OH if unused. Where a SMILES comes first, the peptide text is derived from it. Bridges are numbered along the chain shown (N, C = ends). [ ]: non-standard residue; d: D form. The star is where a group is joined. d1Nal = N[C@H](Cc1cccc2ccccc12)C(=O)O; Asu = N[C@@H](CCCCCC(=O)O)C(=O)O; X1 = O=C(C(N[*:1])S[*:3])[*:2]; Ahp = NCCCCCCC(=O)O; Bn = c1ccc(C*)cc1; Mpa = O=C(O)CCS

Assays:
[1] = biological target: Somatostatin receptor type 3 (Homo sapiens, UniProt P32745)
[2] = biological target: Somatostatin receptor type 4 (Homo sapiens, UniProt P31391)
[3] = biological target: Somatostatin receptor type 5 (Homo sapiens, UniProt P35346)
[4] = biological target: Somatostatin receptor type 1 (Homo sapiens, UniProt P30872)
[5] = biological target: Somatostatin receptor type 2 (Homo sapiens, UniProt P30874)
Chain of Somatostatin receptor type 2 (P30874 whole entry): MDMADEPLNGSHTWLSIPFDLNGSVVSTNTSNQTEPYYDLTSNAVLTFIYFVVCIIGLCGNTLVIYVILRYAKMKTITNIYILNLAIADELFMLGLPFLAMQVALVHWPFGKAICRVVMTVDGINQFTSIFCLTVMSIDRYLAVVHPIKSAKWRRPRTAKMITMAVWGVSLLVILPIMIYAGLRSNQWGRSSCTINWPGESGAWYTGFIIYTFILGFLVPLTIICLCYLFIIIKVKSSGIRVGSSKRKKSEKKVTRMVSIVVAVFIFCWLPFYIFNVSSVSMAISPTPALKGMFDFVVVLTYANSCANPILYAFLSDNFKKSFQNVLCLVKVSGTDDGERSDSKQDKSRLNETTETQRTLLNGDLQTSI

Chain of Somatostatin receptor type 5 (P35346 whole entry): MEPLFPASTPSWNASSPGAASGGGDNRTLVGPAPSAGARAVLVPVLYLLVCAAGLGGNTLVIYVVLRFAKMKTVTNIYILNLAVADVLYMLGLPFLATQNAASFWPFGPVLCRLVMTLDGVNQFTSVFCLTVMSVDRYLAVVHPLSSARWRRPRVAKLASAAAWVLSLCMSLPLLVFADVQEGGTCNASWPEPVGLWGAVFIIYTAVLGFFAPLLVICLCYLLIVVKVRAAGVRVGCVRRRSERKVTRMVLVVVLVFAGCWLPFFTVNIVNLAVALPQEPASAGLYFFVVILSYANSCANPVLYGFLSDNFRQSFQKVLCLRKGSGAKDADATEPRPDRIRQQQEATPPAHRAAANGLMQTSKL
Chain of Somatostatin receptor type 3 (P32745 whole entry): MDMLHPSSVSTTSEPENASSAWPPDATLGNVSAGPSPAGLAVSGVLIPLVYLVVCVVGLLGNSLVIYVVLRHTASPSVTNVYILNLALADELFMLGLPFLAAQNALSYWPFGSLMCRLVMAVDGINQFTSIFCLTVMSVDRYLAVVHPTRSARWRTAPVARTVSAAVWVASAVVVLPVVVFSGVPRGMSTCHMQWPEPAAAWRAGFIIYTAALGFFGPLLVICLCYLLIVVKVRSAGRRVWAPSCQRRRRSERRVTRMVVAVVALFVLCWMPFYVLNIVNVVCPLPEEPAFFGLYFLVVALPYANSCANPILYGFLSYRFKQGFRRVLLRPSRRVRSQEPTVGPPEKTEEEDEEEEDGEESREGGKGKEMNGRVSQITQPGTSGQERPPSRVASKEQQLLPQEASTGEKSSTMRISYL
Chain of Somatostatin receptor type 4 (P31391 whole entry): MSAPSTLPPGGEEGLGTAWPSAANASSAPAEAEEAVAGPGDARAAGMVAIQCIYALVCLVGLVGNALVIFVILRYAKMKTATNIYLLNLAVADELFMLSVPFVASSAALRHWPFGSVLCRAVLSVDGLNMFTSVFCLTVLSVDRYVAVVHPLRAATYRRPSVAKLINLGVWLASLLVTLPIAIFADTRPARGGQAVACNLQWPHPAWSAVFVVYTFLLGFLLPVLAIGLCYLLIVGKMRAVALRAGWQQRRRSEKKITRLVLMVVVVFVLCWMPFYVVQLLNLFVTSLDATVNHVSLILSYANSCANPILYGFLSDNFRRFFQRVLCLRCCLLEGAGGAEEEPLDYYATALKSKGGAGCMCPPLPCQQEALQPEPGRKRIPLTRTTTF
Chain of Somatostatin receptor type 1 (P30872 whole entry): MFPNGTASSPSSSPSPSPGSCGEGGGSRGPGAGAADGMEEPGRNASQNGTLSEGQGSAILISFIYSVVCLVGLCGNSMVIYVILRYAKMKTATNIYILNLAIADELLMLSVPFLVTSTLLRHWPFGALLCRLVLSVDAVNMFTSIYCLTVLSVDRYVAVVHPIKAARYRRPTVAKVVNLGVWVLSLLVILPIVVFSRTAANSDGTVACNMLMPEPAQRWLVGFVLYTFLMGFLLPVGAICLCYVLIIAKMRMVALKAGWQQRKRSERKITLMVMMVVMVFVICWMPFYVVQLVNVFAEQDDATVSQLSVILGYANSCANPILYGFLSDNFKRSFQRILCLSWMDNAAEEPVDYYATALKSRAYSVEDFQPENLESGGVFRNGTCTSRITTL

Compound	pKi [1]	pKi [2]	pKi [3]	pKi [4]	pKi [5]
CC(C)[C@@H]1NC(=O)[C@H](CCCCN)NC(=O)[C@@H](Cc2c[nH]c3ccccc23)NC(=O)[C@H](Cc2ccc(O)cc2)NC(=O)[C@H](C)N(C)C(=O)[C@H](Cc2ccccc2)NC1=O [seglitide]	7.68				
C[C@@H](O)[C@@H]1NC(=O)[C@H](CCCCN)NC(=O)[C@@H](Cc2c[nH]c3ccccc23)NC(=O)[C@H](Cc2c[nH]c3ccccc23)NC(=O)[C@H](Cc2ccccc2)NC(=O)CCCCCCNC(=O)[C@H](Cc2ccccc2)NC1=O [L-362855] (cyclo([Ahp]FW[dW]KTF))	8.29	7.08		6.08	
C[C@@H](OCc1ccccc1)[C@@H]1NC(=O)[C@H](CCCCN)NC(=O)[C@@H](Cc2c[nH]c3ccccc23)NC(=O)[C@H](Cc2ccccc2)NC(=O)CCCCCCNC1=O [c[Aha-Phe-D-Trp-Lys-Thr(Bzl)]] (cyclo([Ahp]F[dW]KT(Bn)))	6.88	6.29		6.48	
C[C@@H](O)[C@@H]1NC(=O)[C@H](CCCCN)NC(=O)[C@@H](Cc2c[nH]c3ccccc23)NC(=O)[C@H](Cc2ccccc2)NC(=O)[C@@H]2CCCN2C(=O)[C@H](Cc2ccccc2)NC1=O (cyclo(PF[dW]KTF))	6.97	5.64		5.66	
CC(C)[C@@H]1NC(=O)[C@H](CCCCN)NC(=O)[C@@H](Cc2c[nH]c3ccccc23)NC(=O)[C@H](Cc2ccc(O)cc2)NC(=O)CCSSC(C(=O)N[C@@H](Cc2ccccc2)C(N)=O)NC1=O (stereo partly specified) [CAS_117580-24-2] ([Mpa]Y[dW]KV[X1]F-NH2; disulfide 1-6)	7.64	5.53		5.17	
C[C@@H](O)[C@H](NC(=O)[C@H](Cc1ccccc1)NC(=O)[C@@H](NC(=O)[C@H](CCCCN)NC(=O)[C@@H](Cc1c[nH]c2ccccc12)NC(=O)[C@H](Cc1ccccc1)NC(=O)[C@H](Cc1ccccc1)NC(=O)[C@H](N)Cc1ccccc1)[C@@H](C)O)C(N)=O [CAS_133073-82-2] (H-[dF]FF[dW]KTFT-NH2)	9.72	8.13		8.17	
CC(C)[C@@H]1NC(=O)[C@H](CCCCN)NC(=O)[C@@H](Cc2c[nH]c3ccccc23)NC(=O)[C@H](Cc2ccc(O)cc2)NC(=O)[C@@H](NC(=O)[C@H](N)Cc2ccc3ccccc3c2)CSSC[C@@H](C(=O)N[C@H](C(N)=O)[C@@H](C)O)NC1=O [3-(2-Naphtyl)-D-Ala-L-Cys(1)-L-Tyr-D-Trp-L-Lys-L-Val-L-Cys(1)-L-Thr-NH2]	7.93			6.75	9.43
CC(C)[C@H](NC(=O)[C@H](CCCCN)NC(=O)[C@@H](Cc1c[nH]c2ccccc12)NC(=O)[C@H](Cc1ccc(O)cc1)NC(=O)[C@H](Cc1ccccc1)NC(=O)[C@H](N)Cc1ccccc1)C(=O)N[C@@H](Cc1ccccc1)C(=O)N[C@H](Cc1cccc2ccccc12)C(N)=O [BIM 23056] (H-[dF]FY[dW]KVF[d1Nal]-NH2)	7.20	7.04		6.56	

Second part, the compound after the results:

pKi [1]	pKi [2]	pKi [3]	pKi [4]	pKi [5]	Compound
10.10 and 9.85 and 9.27	9.38 and 9.16 and 9.13	8.12	9.13 and 9.22 and 9.28		CC(C)C[C@H](NC(=O)[C@H](C)NC(=O)[C@@H]1CCCN1C(=O)[C@H](CC(N)=O)NC(=O)[C@H](CO)NC(=O)[C@H](CC(N)=O)NC(=O)[C@H](C)NC(=O)[C@@H](N)CO)C(=O)N[C@@H](C)C(=O)N1CCC[C@H]1C(=O)N[C@@H](CCCN=C(N)N)C(=O)N[C@@H](CCC(=O)O)C(=O)N[C@@H](CCCN=C(N)N)C(=O)N[C@@H](CCCCN)C(=O)N[C@@H](C)C(=O)NCC(=O)N[C@H]1CSSC[C@@H](C(=O)O)NC(=O)[C@H](CO)NC(=O)[C@H]([C@@H](C)O)NC(=O)[C@H](Cc2ccc(O)cc2)NC(=O)[C@H]([C@@H](C)O)NC(=O)[C@H](CCCCN)NC(=O)[C@@H](Cc2c[nH]c3ccccc23)NC(=O)[C@H](Cc2ccccc2)NC(=O)[C@H](Cc2ccccc2)NC(=O)[C@H](CC(N)=O)NC(=O)[C@H](CCCCN)NC1=O [LTT-SRIF28] (H-SANSNPALAPRERKAGCKNFF[dW]KTYTSC-OH; disulfide 17-28)
9.15	8.62		8.45		C[C@@H](O)[C@@H]1NC(=O)[C@H](Cc2ccc(O)cc2)NC(=O)[C@H]([C@@H](C)O)NC(=O)[C@H](CCCCN)NC(=O)[C@H](Cc2c[nH]c3ccccc23)NC(=O)[C@H](Cc2ccccc2)NC(=O)[C@H](Cc2ccccc2)NC(=O)[C@H](CC(N)=O)NC(=O)[C@H](CCCCN)NC(=O)CCCCC[C@@H](C(=O)O)NC(=O)[C@H](CO)NC1=O [CGP-23996] (KNFFWKTYTS[Asu]-OH; lactam N-11)
9.28	8.57		9.07		C[C@@H](O)[C@@H]1NC(=O)[C@H](CCCCN)NC(=O)[C@H](Cc2c[nH]c3ccccc23)NC(=O)[C@H](Cc2ccccc2)NC(=O)[C@H](Cc2ccccc2)NC(=O)[C@H](CC(N)=O)NC(=O)[C@H](CCCCN)NC(=O)[C@@H](NC(=O)[C@@H]2CCCN2)CSSC[C@@H](C(=O)N[C@@H](CCCCN)C(=O)O)NC(=O)[C@H](CO)NC(=O)[C@H](CO)NC(=O)[C@H](Cc2ccccc2)NC1=O [Cortistatin(1-14)] (H-PCKNFFWKTFSSCK-OH; disulfide 2-13)
9.02 and 8.70 and 8.90	8.30 and 8.44 and 8.17		8.32 and 8.56 and 9.04	8.93 and 8.77 and 8.91 and 9.00	C[C@@H](O)[C@@H]1NC(=O)[C@H](CCCCN)NC(=O)[C@H](Cc2c[nH]c3ccccc23)NC(=O)[C@H](Cc2ccccc2)NC(=O)[C@H](Cc2ccccc2)NC(=O)[C@H](CC(N)=O)NC(=O)[C@H](CCCCN)NC(=O)[C@@H](NC(=O)[C@@H]2CCCN2)CSSC[C@@H](C(=O)N[C@@H](CCCCN)C(=O)O)NC(=O)[C@H](CO)NC(=O)[C@H](CO)NC(=O)[C@H](Cc2ccc(O)cc2)NC1=O [CST14-Tyr10] (H-PCKNFFWKTYSSCK-OH; disulfide 2-13)
7.82	6.97		6.65		CC(C)[C@@H]1NC(=O)[C@H](CCCCN)NC(=O)[C@@H](Cc2c[nH]c3ccccc23)NC(=O)[C@H](Cc2ccc(O)cc2)NC(=O)[C@@H](NC(=O)[C@H](N)Cc2ccccc2)CSSC[C@@H](C(=O)N[C@@H](Cc2c[nH]c3ccccc23)C(N)=O)NC1=O [CAS_71306] (H-[dF]CY[dW]KVCW-NH2; disulfide 2-7)
9.89	9.27 and 9.24	10.22 and 9.55 and 9.38 and 9.85	9.48 and 9.62	9.34 and 8.85	CSCC[C@H](NC(=O)[C@H](CCCN=C(N)N)NC(=O)[C@@H](N)CC(=O)O)C(=O)N1CCC[C@H]1C(=O)N[C@H]1CSSC[C@@H](C(=O)N[C@@H](CCCCN)C(=O)O)NC(=O)[C@H](CO)NC(=O)[C@H](CO)NC(=O)[C@H](Cc2ccccc2)NC(=O)[C@H]([C@@H](C)O)NC(=O)[C@H](CCCCN)NC(=O)[C@H](Cc2c[nH]c3ccccc23)NC(=O)[C@H](Cc2ccccc2)NC(=O)[C@H](Cc2ccccc2)NC(=O)[C@H](CC(N)=O)NC(=O)[C@H](CCCN=C(N)N)NC1=O [Cortistatin]
	5.89 and 6.29 and 6.17		5.69 and 5.57 and 5.82		C[C@@H](O)[C@@H]1NC(=O)[C@H](CCCCN)NC(=O)[C@@H](Cc2c[nH]c3ccccc23)NC(=O)[C@H](Cc2ccc(O)cc2)NC(=O)[C@@H](NC(=O)[C@H](N)Cc2ccccc2)CSSC[C@@H](C(=O)N[C@H](CO)[C@@H](C)O)NC1=O [10-(4-Amino-butyl)-19-(2-amino-3-phenyl-propionylamino)-16-(4-hydroxy-benzyl)-7-(1-hydroxy-ethyl)-13-(1H-indol-3-ylmethyl)-6,9,12,15,18-pentaoxo-1,2-dithia-5,8,11,14,17-pentaaza-cycloicosane-4-carboxylic acid (2-hydroxy-1-hydroxymethyl-propyl)-amide]
